US9382254B2, “Compounds and pharmaceutical compositions thereof for the treatment of cystic fibrosis” (Galapagos NV, priority 2013, dated 2016)

Assays:
Format in all cases: cell-based
[1] = molecular target: T1, CFTR ΔF508 mutant (Homo sapiens, UniProt P13569, DEL508-508); test: YFP-halide influx assay for the CFTR-ΔF508 mutation, PBS buffer (96 well); conditions: CFBE41o- cells, forskolin 10.67 μM
T1 construct: expressed in transfected cells; host or cells: CFBE41o- (adenoviral transduction)
From the text: The YFP halide influx assay measures the functionality of the cystic fibrosis Transmembrane Conductance regulator (CFTR) channels in the cystic fibrosis bronchial epithelium cell line CFBE41o-. The assay is used to evaluate the capacity of compounds to increase the open probability of existing CFTR channels in the membrane. It makes use of the observation that the yellow fluorescent protein (YFP) variant YFP H148Q, I152L has its fluorescence substantially quenched by halide ions like Cl^− and I^−. (Galietta, Haggie, & Verkman, 2001) (Nagai, et al., 2002)
For this purpose, CFBE41o-cells are seeded in 96 well plates (6000 CFBE cells/well). One day after seeding, the CFBE cells are transduced with adenoviral vectors that direct the expression of the CFTR ΔF508 mutant and of the YFP reporter. Cells are incubated at 27° C., 5% CO2 for 24 hours so as to allow for the proper folding and migration to the membrane of the CFTR channel or treated with a CFTR modulator during 24 hours at 37° C.
The I^− induced quenching of fluorescence is recorded immediately after injection of I^− for 7 seconds. The capacity of a compound to increase the channel opening is directly correlated with the decrease in fluorescence, and is expressed as (1-(fluorescence after 7 seconds (F)/fluorescence before injection (F0))) and an EC50 can be derived from a (1-F/F0) vs compound concentration plot.

[2] = molecular target: T2, CFTR G551D mutant (Homo sapiens, UniProt P13569, G551D); test: YFP-halide influx assay for the CFTR-G551D mutation; conditions: HEK293 cells, forskolin 10.67 μM
T2 construct: expressed in transfected cells; host or cells: HEK293 (reverse transfection with plasmid)
T2 sequence (P13569 whole entry G551D): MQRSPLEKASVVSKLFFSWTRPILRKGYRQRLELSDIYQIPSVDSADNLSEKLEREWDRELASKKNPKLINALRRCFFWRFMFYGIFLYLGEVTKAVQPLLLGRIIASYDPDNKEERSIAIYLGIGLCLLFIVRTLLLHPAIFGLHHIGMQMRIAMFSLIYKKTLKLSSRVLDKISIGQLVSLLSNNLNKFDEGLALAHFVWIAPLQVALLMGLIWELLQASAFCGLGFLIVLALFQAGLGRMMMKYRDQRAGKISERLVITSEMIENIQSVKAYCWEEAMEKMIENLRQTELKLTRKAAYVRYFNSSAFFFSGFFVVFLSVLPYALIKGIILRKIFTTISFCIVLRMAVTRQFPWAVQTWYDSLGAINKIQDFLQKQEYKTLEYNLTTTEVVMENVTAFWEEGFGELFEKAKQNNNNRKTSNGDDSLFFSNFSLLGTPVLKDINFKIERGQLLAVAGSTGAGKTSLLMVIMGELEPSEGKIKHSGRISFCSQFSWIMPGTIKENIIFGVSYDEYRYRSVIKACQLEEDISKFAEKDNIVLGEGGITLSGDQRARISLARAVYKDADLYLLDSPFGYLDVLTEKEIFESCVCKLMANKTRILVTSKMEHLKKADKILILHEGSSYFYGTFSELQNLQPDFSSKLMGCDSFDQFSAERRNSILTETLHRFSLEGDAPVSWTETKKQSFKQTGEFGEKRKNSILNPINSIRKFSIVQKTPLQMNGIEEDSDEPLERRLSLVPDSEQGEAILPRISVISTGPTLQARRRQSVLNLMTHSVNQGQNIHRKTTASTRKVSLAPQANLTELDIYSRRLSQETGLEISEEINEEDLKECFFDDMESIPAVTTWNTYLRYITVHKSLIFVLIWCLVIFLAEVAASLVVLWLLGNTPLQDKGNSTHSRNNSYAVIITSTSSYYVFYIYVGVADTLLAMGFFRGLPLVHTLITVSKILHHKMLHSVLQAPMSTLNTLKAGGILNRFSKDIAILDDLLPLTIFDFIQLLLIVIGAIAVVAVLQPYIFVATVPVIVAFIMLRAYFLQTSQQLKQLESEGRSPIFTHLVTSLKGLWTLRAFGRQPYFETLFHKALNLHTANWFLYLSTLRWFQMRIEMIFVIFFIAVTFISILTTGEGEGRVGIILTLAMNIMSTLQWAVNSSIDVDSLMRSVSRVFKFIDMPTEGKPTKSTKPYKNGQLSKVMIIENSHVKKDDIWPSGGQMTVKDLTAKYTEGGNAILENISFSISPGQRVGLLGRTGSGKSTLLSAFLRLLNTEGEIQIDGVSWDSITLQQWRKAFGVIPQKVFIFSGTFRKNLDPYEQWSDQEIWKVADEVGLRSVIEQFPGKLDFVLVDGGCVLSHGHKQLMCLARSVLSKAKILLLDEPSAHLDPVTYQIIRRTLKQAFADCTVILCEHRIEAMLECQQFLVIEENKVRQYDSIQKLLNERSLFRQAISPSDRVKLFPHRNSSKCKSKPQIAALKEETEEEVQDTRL
Summary of the method: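 Channel opening potentiation measured as 1−F/F0, where F is YFP fluorescence 7 s after iodide injection and F0 before; EC50 taken from concentration plot. Cells: HEK293 transiently expressing CFTR G551D plus halide-sensitive YFP (H148Q, I152L, F47L), 24 h at 37 °C, 5% CO2.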

[3] = molecular target: T1, CFTR ΔF508 mutant; test: YFP-halide influx assay for the CFTR-ΔF508 mutation (384 well, FDSS/μCell); conditions: CFBE41o- cells, CFTR-ΔF508, 1×D-PBS, fluorescence after 36 seconds
Summary of the method: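 Potentiator read-out as 1−F/F0, F taken 36 s after iodide addition, EC50 fitted against compound concentration. Cells: CFBE41o- expressing ΔF508 CFTR plus halide-sensitive YFP via adenovirus, rescued by 27 °C for 24 h or 24 h modulator at 37 °C.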

T1 sequence (P13569 with tags, fused parts or gaps DEL508-508): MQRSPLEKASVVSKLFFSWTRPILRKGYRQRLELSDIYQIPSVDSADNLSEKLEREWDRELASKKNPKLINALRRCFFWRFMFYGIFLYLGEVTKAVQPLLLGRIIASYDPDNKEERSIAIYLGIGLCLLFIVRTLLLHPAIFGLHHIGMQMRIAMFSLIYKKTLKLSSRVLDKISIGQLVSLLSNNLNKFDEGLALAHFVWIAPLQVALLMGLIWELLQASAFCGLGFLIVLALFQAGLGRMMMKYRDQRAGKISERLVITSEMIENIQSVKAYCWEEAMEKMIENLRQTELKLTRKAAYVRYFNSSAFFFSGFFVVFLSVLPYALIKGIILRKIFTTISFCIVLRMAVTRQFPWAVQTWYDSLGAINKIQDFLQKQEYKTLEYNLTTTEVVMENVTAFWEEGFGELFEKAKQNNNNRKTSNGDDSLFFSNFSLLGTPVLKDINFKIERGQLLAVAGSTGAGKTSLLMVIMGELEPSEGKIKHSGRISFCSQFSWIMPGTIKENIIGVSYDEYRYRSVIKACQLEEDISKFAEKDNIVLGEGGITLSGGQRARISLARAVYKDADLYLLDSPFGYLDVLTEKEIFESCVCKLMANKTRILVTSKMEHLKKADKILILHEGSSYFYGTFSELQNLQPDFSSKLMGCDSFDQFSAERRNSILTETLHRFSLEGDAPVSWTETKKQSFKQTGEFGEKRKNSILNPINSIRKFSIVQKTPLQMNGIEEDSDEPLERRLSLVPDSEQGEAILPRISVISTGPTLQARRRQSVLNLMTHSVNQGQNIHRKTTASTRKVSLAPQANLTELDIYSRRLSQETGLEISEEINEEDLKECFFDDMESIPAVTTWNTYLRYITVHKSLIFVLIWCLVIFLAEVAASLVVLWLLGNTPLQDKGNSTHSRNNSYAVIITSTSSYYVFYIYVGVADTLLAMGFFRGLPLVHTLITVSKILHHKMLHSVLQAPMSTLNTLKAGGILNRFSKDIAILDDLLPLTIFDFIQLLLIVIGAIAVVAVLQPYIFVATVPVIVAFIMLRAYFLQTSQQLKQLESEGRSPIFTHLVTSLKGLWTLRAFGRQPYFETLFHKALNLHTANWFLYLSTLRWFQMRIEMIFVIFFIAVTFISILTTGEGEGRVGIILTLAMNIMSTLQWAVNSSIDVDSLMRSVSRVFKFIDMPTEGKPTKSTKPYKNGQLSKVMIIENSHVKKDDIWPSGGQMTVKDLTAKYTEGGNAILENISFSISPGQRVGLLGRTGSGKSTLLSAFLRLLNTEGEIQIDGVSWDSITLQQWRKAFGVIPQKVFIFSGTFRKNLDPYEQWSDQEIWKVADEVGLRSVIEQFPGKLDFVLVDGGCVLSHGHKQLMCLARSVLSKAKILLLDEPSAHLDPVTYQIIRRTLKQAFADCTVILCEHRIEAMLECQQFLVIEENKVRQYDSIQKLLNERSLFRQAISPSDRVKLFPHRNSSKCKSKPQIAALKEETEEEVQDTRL

Row | SMILES | EC50 [1] | EC50 [2] | EC50 ([2]; class symbol) | EC50 [3]
1 | COC1CCN(S(=O)(=O)c2cc(C(N)=O)c(NC(=O)C3(O)CC3)s2)CC1 [Compound 239, 2-(1-hydroxycyclopropanecarboxamido)-5-(4-methoxypiperidin-1-ylsulfonyl)thiophene-3-carboxamide] | 292 nM |  |  | 
2 | CC1CN(S(=O)(=O)c2cc(C(N)=O)c(NC(=O)C3(O)CC3)s2)CCO1 (centres unmarked) [Compound 240, 2-(1-hydroxycyclopropanecarboxamido)-5-(2-methylmorpholinosulfonyl) thiophene-3-carboxamide] | 611 nM |  |  | 
3 | CC1(C)COCCN1S(=O)(=O)c1cc(C(N)=O)c(NC(=O)C2(O)CC2)s1 [Compound 241, 5-(3,3-dimethylmorpholinosulfonyl)-2-(1-hydroxycyclopropanecarboxamido) thiophene-3-carboxamide] | 247 nM |  |  | 
4 | COC1CN(S(=O)(=O)c2cc(C(N)=O)c(NC(=O)C3(O)CC3)s2)C1 [Compound 243, 2-(1-hydroxycyclopropanecarboxamido)-5-(3-methoxyazetidin-1-ylsulfonyl)thiophene-3-carboxamide] | 1620 nM |  |  | 
5 | NC(=O)c1cc(S(=O)(=O)c2ccc(F)cc2)sc1NC(=O)c1cccnn1 [Compound 249, N-(3-carbamoyl-5-(4-fluorophenylsulfonyl)thiophen-2-yl)pyridazine-3-carboxamide] | 2900 nM |  |  | 
6 | NC(=O)c1cc(S(=O)(=O)c2ccc(F)cc2)sc1NC(=O)c1ccnnc1 [Compound 250, N-(3-carbamoyl-5-(4-fluorophenylsulfonyl)thiophen-2-yl) pyridazine-4-carboxamide] | > 1000 nM |  |  | 
7 | NC(=O)c1cc(S(=O)(=O)c2ccc(F)cc2)sc1Nc1ccccn1 [Compound 267, 5-(4-fluorophenylsulfonyl)-2-(pyridin-2-ylamino) thiophene-3-carboxamide] | 653 nM |  |  | 
8 | CC(C)=CC(=O)Nc1sc(S(=O)(=O)c2ccc(F)cc2)cc1C(N)=O [Compound 274, 5-(4-fluorophenylsulfonyl)-2-(3-methylbut-2-enamido) thiophene-3-carboxamide] | 231 nM |  |  | 
9 | COCCOC(C)C(=O)Nc1sc(S(=O)(=O)c2ccc(F)cc2)cc1C(N)=O (centres unmarked) [Compound 276, 5-(4-fluorophenylsulfonyl)-2-(2-(2-methoxyethoxy)propanamido) thiophene-3-carboxamide] | 777 nM | 3330 nM |  | 
10 | NC(=O)c1cc(S(=O)(=O)c2ccc(F)cc2)sc1NC(=O)C1COCCO1 (centres unmarked) [Compound 277, N-(3-carbamoyl-5-(4-fluorophenylsulfonyl)thiophen-2-yl)-1,4-dioxane-2-carboxamide] | 389 nM | 3330 nM |  | 
11 | Cc1cccnc1S(=O)(=O)c1cc(C(N)=O)c(NC(=O)C(C)(C)O)s1 [Compound 278, 2-(2-hydroxy-2-methylpropanamido)-5-(3-methylpyridin-2-ylsulfonyl) thiophene-3-carboxamide] | 1400 nM |  | > 1000 nM | 
12 | Cn1ccnc1S(=O)(=O)c1cc(C(N)=O)c(NC(=O)C(C)(C)O)s1 [Compound 285, 2-(2-hydroxy-2-methylpropanamido)-5-(1-methyl-1H-imidazol-2-ylsulfonyl) thiophene-3-carboxamide] | > 1000 nM |  | > 1000 nM | 
13 | NC(=O)c1cc(S(=O)(=O)c2ccc(F)cc2)sc1NC(=O)C(O)CO (centres unmarked) [Compound 288, 2-(2,3-dihydroxypropanamido)-5-(4-fluorophenylsulfonyl) thiophene-3-carboxamide] | 2360 nM |  | > 1000 nM | 
14 | CC(=O)OC(C)(C)C(=O)Nc1sc(S(=O)(=O)c2ccccc2C(C)C)cc1C(N)=O [Compound 294, 1-(3-carbamoyl-5-(2-isopropylphenylsulfonyl)thiophen-2-ylamino)-2-methyl-1-oxopropan-2-yl acetate] | 228 nM | 1330 nM |  | 

Continued, values first:

Row | EC50 [1] | EC50 [2] | EC50 ([2]; class symbol) | EC50 [3] | SMILES
15 | 128 nM | 1050 nM |  |  | CN(C1CC1)S(=O)(=O)c1cc(C(N)=O)c(NC(=O)C2(O)CC2)s1 [Compound 232, 5-(N-cyclopropyl-N-methylsulfamoyl)-2-(1-hydroxycyclopropanecarboxamido) thiophene-3-carboxamide]
16 | 130 nM |  | > 1000 nM |  | CC(C)N(C(C)C)S(=O)(=O)c1cc(C(N)=O)c(NC(=O)C2(O)CC2)s1 [Compound 233, 5-(N,N-diisopropylsulfamoyl)-2-(1-hydroxycyclopropanecarboxamido) thiophene-3-carboxamide]
17 | 46.8 nM |  |  | 76.6 nM | COc1ccc(CN(C)S(=O)(=O)c2cc(C(N)=O)c(NC(=O)C3(O)CC3)s2)cc1 [Compound 235, 2-(1-hydroxycyclopropanecarboxamido)-5-(N-(4-methoxybenzyl)-N-methylsulfamoyl) thiophene-3-carboxamide]
18 | 66.3 nM |  |  | 108 nM | CC(C)N(c1ccc(F)cc1)S(=O)(=O)c1cc(C(N)=O)c(NC(=O)C2(O)CC2)s1 [Compound 237, 5-(N-(4-fluorophenyl)-N-isopropylsulfamoyl)-2-(1-hydroxycyclopropanecarboxamido) thiophene-3-carboxamide]
19 | 224 nM |  |  |  | CC1CN(S(=O)(=O)c2cc(C(N)=O)c(NC(=O)C3(O)CC3)s2)CC(C)O1 (centres unmarked) [Compound 238, 5-(2,6-dimethylmorpholinosulfonyl)-2-(1-hydroxycyclopropanecarboxamido) thiophene-3-carboxamide]
20 | 153 nM |  |  |  | COCCN(C1CC1)S(=O)(=O)c1cc(C(N)=O)c(NC(=O)C2(O)CC2)s1 [Compound 244, 5-(N-cyclopropyl-N-(2-methoxyethyl)sulfamoyl)-2-(1-hydroxycyclopropanecarboxamido) thiophene-3-carboxamide]
21 | 49.1 nM | 214 nM |  |  | NC(=O)c1cc(S(=O)(=O)c2ccc(F)cc2)sc1NC(=O)C(O)C(F)(F)F (centres unmarked) [Compound 252, 5-(4-fluorophenylsulfonyl)-2-(3,3,3-trifluoro-2-hydroxypropanamido) thiophene-3-carboxamide]
22 | 102 nM |  |  | 157 nM | CC1CN(S(=O)(=O)c2cc(C(N)=O)c(NC(=O)c3ccccc3C(F)(F)F)s2)CC(C)O1 (centres unmarked) [Compound 258, 5-(2,6-dimethylmorpholinosulfonyl)-2-(2-(trifluoromethyl)benzamido) thiophene-3-carboxamide]
23 | 144 nM |  |  |  | CC1COCC(C)N1S(=O)(=O)c1cc(C(N)=O)c(NC(=O)c2ccccc2C(F)(F)F)s1 (centres unmarked) [Compound 259, 5-(3,5-dimethylmorpholinosulfonyl)-2-(2-(trifluoromethyl)benzamido) thiophene-3-carboxamide]
24 | 94.4 nM |  |  | 87.5 nM | CC1(C)COCCN1S(=O)(=O)c1cc(C(N)=O)c(NC(=O)c2ccccc2C(F)(F)F)s1 [Compound 260, 5-(3,3-dimethylmorpholinosulfonyl)-2-(2-(trifluoromethyl)benzamido) thiophene-3-carboxamide]
25 | 31.9 nM |  |  | 92.4 nM | COCCN(C1CC1)S(=O)(=O)c1cc(C(N)=O)c(NC(=O)c2ccccc2C(F)(F)F)s1 [Compound 261, 5-(N-cyclopropyl-N-(2-methoxyethyl)sulfamoyl)-2-(2-(trifluoromethyl)benzamido) thiophene-3-carboxamide]
26 | 69.1 nM |  |  | 115 nM | CN(C1CC1)S(=O)(=O)c1cc(C(N)=O)c(NC(=O)c2ccccc2C(F)(F)F)s1 [Compound 262, 5-(N-cyclopropyl-N-methylsulfamoyl)-2-(2-(trifluoromethyl)benzamido) thiophene-3-carboxamide]
27 | 197 nM |  |  |  | NC(=O)c1cc(S(=O)(=O)c2ccc(F)cc2)sc1NC(=O)c1ccc(F)cn1 [Compound 266, N-(3-carbamoyl-5-(4-fluorophenylsulfonyl)thiophen-2-yl)-5-fluoropicolinamide]
28 | 195 nM |  |  |  | COC(C)(C)C(=O)Nc1sc(S(=O)(=O)c2ccc(F)cc2)cc1C(N)=O [Compound 268, 5-(4-fluorophenylsulfonyl)-2-(2-methoxy-2-methylpropanamido) thiophene-3-carboxamide]
29 | 220 nM | 1720 nM |  |  | NC(=O)c1cc(S(=O)(=O)c2ccc(F)cc2)sc1NC(=O)C(O)(C(F)(F)F)C(F)(F)F [Compound 275, 5-(4-fluorophenylsulfonyl)-2-(3,3,3-trifluoro-2-hydroxy-2-(trifluoromethyl)propanamido) thiophene-3-carboxamide]
30 | 157 nM | 3330 nM |  |  | COCCOc1cc(F)ccc1S(=O)(=O)c1cc(C(N)=O)c(NC(=O)C(C)(C)O)s1 [Compound 282, 5-(4-fluoro-2-(2-methoxyethoxy)phenylsulfonyl)-2-(2-hydroxy-2-methylpropanamido) thiophene-3-carboxamide]
